These substances were tested on anti-CD28 scFv (assay: Phage binding ELISA (panning) of clonal phage on anti-CD28 scFv, with or without CD28 soluble protein). Details: Phage binding ELISA; captured anti-CD28 scFv pre-incubated with CD28 soluble protein.
Procedure: Clonal phage were harvested as crude supernatants and screened via standard enzyme linked immunosorbent assays (ELISAs). […] Prior to the addition of clonal phage, wells were incubated with blocking buffer and CD28 soluble protein or blocking buffer alone. Without washing or aspirating, clonal phage supernatants were then added to the wells and incubated for a short time. Wells were then washed followed by detection of bound phage using a horse radish peroxidase conjugated anti-M13 antibody. Clonal phage of interest were then sent for sequence analysis.

Row | Substance | CD28 scFv signal in presence of CD28
1 | Phage-93 (MDWCPRYLWTVCFS) | 0.372
2 | Phage-113 (MDWCPRDLWNVCFF) | 0.137
3 | Phage-109 (MDWCPKNLWHVCFN) | 0.248
4 | Phage-92 (MDWCPRHLWHECFF) | 0.373

Same assay, conditions: Phage binding ELISA; captured biotinylated anti-CD28 scFv, blocking buffer alone

Row | Substance | CD28 scFv signal
5 | Phage-93 (MDWCPRYLWTVCFS) | 2.582
6 | Phage-113 (MDWCPRDLWNVCFF) | 2.520
7 | Phage-109 (MDWCPKNLWHVCFN) | 2.530
8 | Phage-92 (MDWCPRHLWHECFF) | 2.583

Same assay, conditions: Phage binding ELISA; clonal phage supernatant, background wells

Row | Substance | Backgroud signal
9 | Phage-118 (MDWCPRHLWDECFF) | 0.074
10 | Phage-135 (MDWCPKFLWHECFS) | 0.065
11 | Phage-151 (MDFCPISLWHECFF) | 0.081
12 | Phage-153 (MDWCPRHLWDLCFF) | 0.093
13 | Phage-120 (MDWCPRDLWHACFS) | 0.074
14 | Phage-147 (MHWCPRDLWVVCFN) | 0.070
15 | Phage-93 (MDWCPRYLWTVCFS) | 0.115
16 | Phage-142 (MDWCPVILWDFCFN) | 0.066
17 | Phage-113 (MDWCPRDLWNVCFF) | 0.164
18 | Phage-141 (MDWCPRSLWNVCFF) | 0.106
19 | Phage-144 (MDWCPRHLWYACFN) | 0.061
20 | Phage-133 (MDWCPRFLWDECFF) | 0.064
21 | Phage-109 (MDWCPKNLWHVCFN) | 0.081
22 | Phage-94 (MDWCPRDLWSLCFY) | 0.065
23 | Phage-95 (MDWCPRFLWSECFN) | 0.062
24 | Phage-132 (MDWCPTYLWFECFN) | 0.205
25 | Phage-146 (MDWCPRHLWSECFY) | 0.136
26 | Phage-121 (MDWCPRDLWHVCFF) | 0.068
27 | Phage-116 (MDWCPRDLWYACFA) | 0.072
28 | Phage-149 (MDWCPRDLWAVCFA) | 0.070
29 | Phage-140 (MDWCPMDLWDVCFN) | 0.090
30 | Phage-92 (MDWCPRHLWHECFF) | 0.364
31 | Phage-90 (MDWCPIDLWHLCFY) | 0.062
32 | Phage-89 (MDWCPRALWNVCFN) | 0.065

Same assay, conditions: clonal phage supernatant on captured anti-CD28 scFv pre-incubated with CD28 soluble protein

Row | Substance | Phage binding ELISA CD28 scFv signal in presence of CD28
33 | Phage-47 (MAWCPVYLWHECFN) | 0.351
34 | Phage-44 (MDWCPIALWAECFN) | 0.224
35 | Phage-74 (MDWCPRDMWLFCYN) | 1.023
36 | Phage-43 (MDWCPRALWHECFY) | 0.252
37 | Phage-76 (MDWCPRYLWSDCFA) | 1.530

Same assay, conditions: clonal phage supernatant on captured biotinylated anti-CD28 scFv; blocking buffer alone

Row | Substance | Phage binding ELISA CD28 scFv signal
38 | Phage-47 (MAWCPVYLWHECFN) | 2.273
39 | Phage-44 (MDWCPIALWAECFN) | 2.458
40 | Phage-74 (MDWCPRDMWLFCYN) | 2.707
41 | Phage-43 (MDWCPRALWHECFY) | 2.499
42 | Phage-76 (MDWCPRYLWSDCFA) | 2.727

Same assay, conditions: clonal phage supernatant; background (no anti-CD28 scFv signal)

Row | Substance | Phage binding ELISA Backgroud signal
43 | Phage-422 (MYWCPINMWDYCYA) | 0.122
44 | Phage-381 (MAWCPRILWHQCFN) | 0.113
45 | Phage-399 (MDWCPRSMWDSCFN) | 0.332
46 | Phage-401 (MDWCPLDMWVLCFA) | 0.085
47 | Phage-435 (MDWCPRDRWVDCYA) | 0.157
48 | Phage-436 (MDWCPRDRWADCFN) | 0.063
49 | Phage-412 (QHWCPRDMWNDCYA) | 0.066
50 | Phage-446 (MDWCPRDRWDDCFN) | 0.069
51 | Phage-424 (ITQCPSTMWNRCSV) | 0.067
52 | Phage-402 (MDWCPRHMWHECFH) | 0.067
53 | Phage-407 (MNWCPIHMWNQCFA) | 0.085
54 | Phage-433 (MAWCPWAQFDECLA) | 0.073
55 | Phage-419 (VDWCPAHMWNECYN) | 0.208
56 | Phage-445 (MDWCPRARWHDCFF) | 0.097
57 | Phage-404 (MDWCPRDMWTSCFN) | 0.100

Same assay, conditions: clonal phage supernatant; background signal

Row | Substance | Phage binding ELISA Backgroud signal
58 | Phage-173 (MDWCPMNLWSECFN) | 0.168
59 | Phage-217 (MDWCPWDMWDKCFN) | 0.101
60 | Phage-323 (MDWCPTYLWNVCFA) | 0.085
61 | Phage-185 (MERCPRFLWNECFN) | 0.132
62 | Phage-73 (MDWCPRALWHECFN) | 0.071
63 | Phage-47 (MAWCPVYLWHECFN) | 0.094
64 | Phage-44 (MDWCPIALWAECFN) | 0.111
65 | Phage-247 (MDWCPRFMWAECFN) | 0.073
66 | Phage-241 (MDWCPRHLWHECYS) | 0.066
67 | Phage-276 (IDWCPKIHWDLCYF) | 0.072
68 | Phage-356 (MDWCPMYLWDECFF) | 0.082
69 | Phage-260 (MDWCPVFMWNECFN) | 0.079
70 | Phage-365 (MDWCPSYLWPVCFN) | 0.079
71 | Phage-336 (MDWCPRDLWNWCFN) | 0.139
72 | Phage-290 (MDWCPRDLWSVCFS) | 0.090
73 | Phage-307 (MDWCPRYLWPVCFH) | 0.179
74 | Phage-207 (MDWCPRAMWHECFY) | 0.069
75 | Phage-202 (MFWCPMDMWDQCFN) | 0.091
76 | Phage-319 (MSWCPRDLWHLCFF) | 0.077
77 | Phage-326 (MFWCPITLWNECFN) | 0.075
78 | Phage-320 (MDWCPTYLWNECFN) | 0.120
79 | Phage-360 (MDWCPMFLWHECFS) | 0.092
80 | Phage-338 (MDWCPRFLWNECFY) | 0.143
81 | Phage-189 (VDWCPRYLWHVCYN) | 0.064
82 | Phage-308 (MDWCPKSLWAECFN) | 0.395

Row | Substance | Phage binding ELISA Backgroud signal
83 | Phage-235 (MDWCPRYLWHECFS) | 0.063
84 | Phage-211 (MDWCPRNMWTVCFL) | 0.060
85 | Phage-283 (MDWCPRHLWNECFN) | 0.079
86 | Phage-167 (MSWCPQDLWHVCFN) | 0.095
87 | Phage-200 (MFWCPFDMWHFCFN) | 0.150
88 | Phage-306 (MDWCPRHLWNECFA) | 0.068
89 | Phage-172 (MDWCPPYLWYECFA) | 0.068
90 | Phage-63 (MDWCPRALWAECFN) | 0.068
91 | Phage-372 (MDWCPRYLWVDCFA) | 0.095
92 | Phage-171 (MNWCPSHLWHMCYF) | 0.195
93 | Phage-164 (MDWCPKFLWDLCFA) | 0.100
94 | Phage-337 (MDWCPKPLWHVCFA) | 0.069
95 | Phage-280 (MDWCPRYLWDYCFA) | 0.073
96 | Phage-246 (MDWCPKHLWNKCFN) | 0.075
97 | Phage-240 (MDWCPRTLWHVCFN) | 0.317
98 | Phage-301 (MDWCPRYLWHECFF) | 0.082
99 | Phage-329 (MDWCPRALWNVCFA) | 0.071
100 | Phage-177 (MDWCPVSLWDHCFN) | 0.075
101 | Phage-378 (MHWCPLHLWNECFA) | 0.065
102 | Phage-57 (MDWCPRHRWVDCFY) | 0.073
103 | Phage-251 (MDWCPRFMWSECFS) | 0.092
104 | Phage-74 (MDWCPRDMWLFCYN) | 0.097
105 | Phage-222 (MDWCPRDQWHNCFN) | 0.075
106 | Phage-190 (MDWCPRDMWAECFF) | 0.099
107 | Phage-315 (MDWCPTYLWHVCFS) | 0.089

Row | Substance | Phage binding ELISA Backgroud signal
108 | Phage-328 (MDWCPRALWDHCFN) | 0.323
109 | Phage-71 (MDWCPRYLWHECFA) | 0.071
110 | Phage-243 (MDWCPRHLWYECFN) | 0.063
111 | Phage-43 (MDWCPRALWHECFY) | 0.115
112 | Phage-159 (MAWCPMNLWDQCFF) | 0.070
113 | Phage-39 (MDWCPMHLWHQCFN) | 0.073
114 | Phage-230 (APWCQIISGLECLT) | 0.080
115 | Phage-334 (MDWCPRYLWDECFS) | 0.069
116 | Phage-50 (MDWCPPYLWNVCFS) | 0.063
117 | Phage-284 (MDWCPRFLWHVCFS) | 2.091
118 | Phage-179 (MDWCPWILWNECFN) | 0.141
119 | Phage-191 (MDWCPRDMWYECFN) | 0.099
120 | Phage-209 (IDWCPQDMWFYCFN) | 0.069
121 | Phage-206 (IHWCPINMWDKCYN) | 0.060
122 | Phage-174 (MDWCPKHLWNECFN) | 0.063
123 | Phage-76 (MDWCPRYLWSDCFA) | 0.084
124 | Phage-255 (MDWCPRHLWSVCFN) | 0.064
125 | Phage-299 (MDWCPIYLWAECFN) | 0.078
126 | Phage-86 (MDWCPRHLWAECFF) | 0.066
127 | Phage-236 (MDWCPRDLWNLCFF) | 0.084
128 | Phage-199 (MDWCPRNMWAQCFA) | 0.102
129 | Phage-351 (MDWCPMNLWHECFA) | 0.080
130 | Phage-364 (MDWCPRSLWAQCFY) | 0.067
131 | Phage-249 (MDWCPSDMWAHCYN) | 0.191
